Assay results as given in patent US8741836B2, “Polypeptides” (Novo Nordisk A/S, priority 2011, dated 2014).
Where two headings read alike, the source gives them in different places. Starred links: 1 amine or outer side, 2 acyl side, 3 side chain; linkers in the order of their positions; H or OH if unused. Positions of bridges follow the written chain, without caps; N, C: chain ends. Residues, ends and D or L forms follow the SMILES beside them. Groups on a side chain read outwards from the residue. *: point of attachment. C18 diacid = O=C(O)CCCCCCCCCCCCCCCCC(=O)*; γGlu = O=C(O)[C@H](CCC(=O)[*:2])N[*:1]; AEEA = NCCOCCOCC(=O)O

Columns and labels:
[1] = target: T1, human amylin 3(a) receptor (human calcitonin receptor + RAMP-3) (Homo sapiens, UniProt O60896+P30988); assay: Assay (II)a functional assay, human amylin receptor (CRE luciferase reporter in BHK cells); assay type: cell-based
T1 construct: expressed in transfected cells; CRE-luciferase reporter
T1 sequence (P30988 25-474): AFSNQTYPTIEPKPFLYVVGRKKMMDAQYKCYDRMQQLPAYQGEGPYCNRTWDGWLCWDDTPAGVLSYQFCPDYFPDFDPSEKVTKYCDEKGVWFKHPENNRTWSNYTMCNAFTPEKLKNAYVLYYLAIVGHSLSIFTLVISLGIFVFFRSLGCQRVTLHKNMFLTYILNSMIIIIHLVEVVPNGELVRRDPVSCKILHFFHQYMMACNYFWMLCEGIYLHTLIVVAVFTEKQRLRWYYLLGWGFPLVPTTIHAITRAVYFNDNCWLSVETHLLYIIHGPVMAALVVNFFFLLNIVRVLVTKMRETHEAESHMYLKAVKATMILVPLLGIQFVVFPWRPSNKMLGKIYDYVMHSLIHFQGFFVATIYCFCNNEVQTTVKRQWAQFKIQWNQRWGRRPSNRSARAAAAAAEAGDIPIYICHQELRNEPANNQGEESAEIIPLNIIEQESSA
T1 sequence (O60896 24-148 partner): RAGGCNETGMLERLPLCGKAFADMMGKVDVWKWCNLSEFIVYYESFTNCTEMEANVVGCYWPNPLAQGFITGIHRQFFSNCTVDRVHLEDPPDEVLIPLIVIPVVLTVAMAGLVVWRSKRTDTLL
Description: (§1) 1. Luciferase Assay Outline
(§2) Activation of calcitonin and amylin (coexpression of calcitonin receptor and receptor activity modifying proteins (RAMP)) receptors lead to increased intracellular concentrations of cAMP. Consequently, transcription is activated by promoters containing multiple copies of the cAMP response element (CRE). It is thus possible to measure amylin activity by the use of a CRE luciferase reporter gene introduced into BHK cells also expressing calcitonin or amylin receptors.
(§3) A BHK570 cell line was stably transfected with the human calcitonin receptor and a CRE-responsive luciferase reporter gene. The cell line was further transfected with RAMP-3, using standard methods. This turns the calcitonin receptor into an amylin 3(a) receptor. Methotrexate, Neomycin, and Hygromycin are selection markers for luciferase, the calcitonin receptor, and RAMP-3, respectively.
(§4) To perform activity assays, BHK calcitonin (a) receptor- or amylin 3(a)-receptor/CRE-luc cells were seeded in white 96 well culture plates at a density of about 20.000 cells/well. […] After incubation overnight at 37° C. and 5% CO2, the growth medium was replaced by 50 μl/well assay medium (DMEM (without phenol red), Glutamax™, 10% FBS, and 10 mM Hepes, pH 7.4). Further, 50 μl/well of standard or sample in assay buffer were added. After 3 hours incubation at 37° C. and 5% CO2, the assay medium with standard or sample were removed and replaced by 100 μl/well PBS. Further, 100 μl/well LucLite™ was added. The plates were sealed and incubated at room temperature for 30 minutes. Finally, luminescence was measured on a TopCounter (Packard) in SPC (single photon counting) mode.

[2] = target: T2, rat calcitonin (a) receptor (Rattus norvegicus, UniProt P32214); assay: Assay (II)b functional assay, rat calcitonin receptor (cAMP FlashPlate); assay type: cell-based; conditions: Table 11, read-out: CTa receptor rat EC50
T2 construct: expressed in transfected cells; host or cells: BHK tk'ts 13 (transient, FuGENE 6)
T2 sequence (P32214 25-479 isoform P32214-2 limits assumed): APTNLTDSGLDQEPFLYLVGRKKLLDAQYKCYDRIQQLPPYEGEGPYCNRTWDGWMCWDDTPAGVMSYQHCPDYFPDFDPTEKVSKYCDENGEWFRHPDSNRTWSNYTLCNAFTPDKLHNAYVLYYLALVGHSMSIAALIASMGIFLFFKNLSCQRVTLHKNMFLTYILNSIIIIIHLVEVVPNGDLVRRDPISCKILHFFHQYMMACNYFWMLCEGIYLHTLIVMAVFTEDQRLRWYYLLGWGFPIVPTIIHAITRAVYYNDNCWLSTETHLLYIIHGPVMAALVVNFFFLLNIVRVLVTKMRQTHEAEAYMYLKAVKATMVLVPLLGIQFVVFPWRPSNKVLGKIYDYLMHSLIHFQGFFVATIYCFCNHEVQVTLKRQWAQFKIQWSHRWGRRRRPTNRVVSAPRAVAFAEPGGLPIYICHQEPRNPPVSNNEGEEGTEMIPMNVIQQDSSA
Description: Assay (II)b—Rat Calcitonin and Rat Amylin Receptor Assays
Activation of calcitonin and amylin (coexpression of calcitonin receptor and receptor activity modifying proteins (RAMP)) receptors lead to increased intracellular concentrations of cAMP. In order to quantify the cAMP levels in transiently transfected cells the Adenylyl Cyclase Activation FlashPlate® Assay from Perkin Elmer was used. The basic principle of the FlashPlate® Assay is a competition between radioactive and non-radioactive cAMP generated by the cells for a fixed number of binding sites.
Construction of Rat Calcitonin(a)- and Rat Amylin 3(a)-Receptor Cells.
BHK tk'ts 13 cells were transiently transfected with either rat calcitonin (a) receptor or amylin 3 (a) receptor (rat calcitonin(a) receptor+rat RAMP3) using FuGENE® 6 (Roche), according to the manufacturers recommendations.
24 hours after transient transfection the cells (rat calcitonin(a)- or rat amylin 3(a)-receptor cells) were added (100.000 cells/well) to the 96 well FlashPlates® with samples or standard in FlashPlate stimulation buffer with IBMX and incubated for 30 min. Detection mix was created according to manufacturers protocol and scintillation measured after 3 h of incubation on TopCounter™ (Packard).

[3] = target: T3, human calcitonin receptor (Homo sapiens, UniProt P30988); assay: Assay (II)a functional assay, human calcitonin receptor (CRE luciferase reporter in BHK cells); assay type: cell-based
T3 construct: expressed in transfected cells; CRE-luciferase reporter
T3 sequence (P30988 25-474): T1 sequence (P30988 25-474)
Description: as §1, §2, §3, §4

[4] = Assay (IV) determination of solubility; assay type: physicochemical
Procedure: Assay (IV)—Determination of Solubility
The polypeptide was dissolved in water at −500 nmol/ml and mixed 1:1 with a series of buffers (100 mM glycylglycine pH 3.0, 100 mM glycylglycine pH 4.0, 100 mM glycylglycine pH 5.0, 100 mM bistrispropane pH 6.0, 100 mM bistrispropane pH 6.5, 100 mM bistrispropane pH 7.0, 100 mM bistrispropane pH 7.5, 100 mM bistrispropane pH 8.0). After 18 hours at room temperature the samples were centrifuged and the polypeptide concentration determined by HPLC.

`CC[C@H](C)[C@H](NC(=O)[C@@H]1CCCN1C(=O)CNC(=O)[C@H](Cc1ccccc1)NC(=O)[C@H](CC(N)=O)NC(=O)[C@H](CCCCNC(=O)COCCOCCNC(=O)COCCOCCNC(=O)CC[C@H](NC(=O)CCCCCCCCCCCCCCCCC(=O)O)C(=O)O)NC(=O)[C@H](CO)NC(=O)[C@H](CO)NC(=O)[C@H](Cc1c[nH]cn1)NC(=O)[C@H](Cc1c[nH]cn1)NC(=O)[C@H](CC(C)C)NC(=O)[C@H](Cc1ccccc1)NC(=O)[C@H](CCC(=O)O)NC(=O)[C@H](C)NC(=O)[C@H](CC(C)C)NC(=O)[C@H](CCCNC(=N)N)NC(=O)[C@H](CCC(N)=O)NC(=O)[C@@H](NC(=O)[C@H](C)NC(=O)[C@@H]1CSSC[C@H](NC(=O)[C@@H](N)CCCCN)C(=O)N[C@@H](CC(N)=O)C(=O)N[C@@H]([C@@H](C)O)C(=O)N[C@@H](C)C(=O)N[C@@H]([C@@H](C)O)C(=O)N1)[C@@H](C)O)C(=O)N[C@@H](CC(C)C)C(=O)N1CCC[C@H]1C(=O)N1CCC[C@H]1C(=O)N[C@H](C(=O)N[C@@H](CC(N)=O)C(=O)N[C@H](C(=O)NCC(=O)N[C@@H](CO)C(=O)N[C@@H](CCC(=O)O)C(=O)N[C@H](C(=O)N[C@@H](Cc1ccc(O)cc1)C(N)=O)[C@@H](C)O)C(C)C)[C@@H](C)O` [Example 74, N-epsilon21-[2-(2-{2-[2-(2-{2-[(S)-4-Carboxy-4-(17-carboxyheptadecanoylamino)butyrylamino]ethoxy}ethoxy)acetylamino]ethoxy}ethoxy)acetyl]-[Glu14,His17,Lys21,Glu35]-pramlintide] (H-KCNTATCATQRLAEFLHHSSK([AEEA-AEEA-γGlu-C18 diacid])NFGPILPPTNVGSETY-NH2; disulfide 2-7 (inferred); N-terminus and C-terminus assumed) gave an EC50 [1] of 0.184 nM, an EC50 ([1]; Table 4) of 0.184 nM and an EC50 ([1]; Table 5) of 0.184 nM. The EC50 ([1]; Table 6, human amylin receptor) was 0.184 nM, the EC50 ([1]; Table 7, human amylin receptor) was 0.184 nM and the EC50 ([1]; Table 8, human amylin receptor) was 0.184 nM. The EC50 ([1]; Table 11, human amylin receptor) was 0.184 nM, the EC50 [2] was 2.06 nM and the EC50 ([3]; Table 7, human calcitonin (CTa) receptor) was 0.216 nM. The EC50 ([3]; Table 11, human calcitonin receptor, read-out: CTa receptor human EC50) was 0.216 nM, the solubility at 18 h ([4]; bistrispropane buffer, pH 6.5, read-out: Solubility) was > 200 µM and the solubility at 18 h ([4]; bistrispropane buffer, pH 7.5, read-out: Solubility pH 7.5) was > 200 µM. The solubility at 18 h ([4]; bistrispropane buffer, pH 6.0, read-out: Solubility) was > 200 µM, the solubility at 18 h ([4]; bistrispropane buffer, pH 7.0, read-out: Solubility pH 7.0) was > 200 µM and the solubility at 18 h ([4]; bistrispropane buffer, pH 8.0, read-out: Solubility) was > 200 µM. For the same molecule, the solubility at 18 h ([4]; glycylglycine buffer, pH 3.0, read-out: Solubility) was > 200 µM, the solubility at 18 h ([4]; glycylglycine buffer, pH 4.0, read-out: Solubility pH 4.0) was > 200 µM and the solubility at 18 h ([4]; glycylglycine buffer, pH 5.0, read-out: Solubility) was > 200 µM. For the same molecule, the solubility at 18 h ([4]; pH 4.0, read-out: Solubility) was >200 µM, the solubility at 18 h ([4]; pH 7.0, read-out: Solubility) was >200 µM and the solubility at 18 h ([4]; pH 7.5, read-out: Solubility) was >200 µM.
